Earlier results as cited in US7718634B2, “Method of treatment using bisphosphonic acid” (Hoffman-La Roche Inc., priority 2002, dated 2010).

Key:
bone resorption = details: animal models of bone resorption

For `CCCCCN(C)CCC(O)(P(=O)(O)O)P(=O)(O)O` [ibandronate, 1-hydroxy-3-(N-methyl-N-pentyl)aminopropylidene-1,1-bisphosphonic acid], the “times more potent than alendronate” value (bone resorption; relative to alendronate) is listed as 10 times, the “times more potent than clodronate” value (bone resorption; relative to clodronate) is listed as 500 times and the “times more potent than pamidronate” value (bone resorption; relative to pamidronate) is listed as 50 times. The “times more potent than risedronate” value (bone resorption; relative to risedronate) was 2 times, the number of osteoclasts (osteoclasts; at high doses) was “reduces the number of osteoclasts” and the “bone resorption and mineralization” value (osteoclasts; in vivo) was “inhibits bone resorption without any impairment of mineralization”. For the same compound, the osteoclastic activity (osteoclasts; in vivo) was “decrease osteoclastic activity”.
